Blank lines part the entries; values can stand above or below the molecule they belong to.
Tests used:
[1] = Stability testing of capsules at 40° C./75% RH; assay type: physicochemical
From the text: (§1) In some embodiments, the method disclosed herein comprises storing (keeping) a sample of the pharmaceutical product for a period of time, preferably under selected conditions of temperature and humidity. The amount (or concentration) of tasquinimod and of at least one of compounds I, II, III and IV in the sample may preferably be determined at the beginning or before the storage period and at the end of the storage period. The selected storage conditions may include a temperature in the range of, for example, 20° C. to 40° C., and a relative humidity in the surrounding atmosphere in the range of, for example, 30% to 75%; e.g. 25° C. and 60% RH, or 30° C. and 65% RH, or 35° C. and 70% RH, or 40° C. and 75% RH. The storage period may extend over a time period in the range of, for example, several weeks to several years. For example, the stability testing period (“storage period”) may be 2 weeks, 3 weeks, 1 month, 2 months, 3 months, 4 months, 5 months, 6 months, 9 months, 1 year, 18 months, 2 years, 3 years, 4 years or even 5 years or longer. A shorter storage period may be selected by use of higher storage temperature and/or higher relative humidity (RH). The total amount of a tasquinimod decomposition product in the sample at the end of the storage period may be determined by, for example, HPLC.
The batch of capsules manufactured in Example 2 was assessed by determining the amount of tasquinimod and the amount of compound III in a sample of the capsules, whereby the criterion for approving the batch was that a sample of capsules from the batch, at the end of a 1-month stability testing, contain not more than 1.0% w/w of compound III relative to the amount of tasquinimod. The stability testing consisted of keeping the capsules at 40° C./75% RH in open brown glass jars. At the end of the 1-month stability testing, the capsules contained 0.13% w/w of compound III, relative to the amount of tasquinimod (1.04 mg/capsule). Therefore, according to the selected criterion for approval, the batch of capsules was determined to be suitable for distribution.
The batch of capsules manufactured in Example 7 was assessed by determining the amount of tasquinimod and the amount of compound III in a sample of the capsules, whereby the criterion for approving the batch was that a sample of capsules from the batch, at the end of a 3-month stability testing, contain not more than 1.0% w/w of compound III relative to the amount of tasquinimod in the capsules. The stability testing consisted of keeping the capsules at 40° C./75% RH in sealed brown glass jars. At the end of the stability testing, the capsules contained 0.08% w/w of compound III, relative to the amount of tasquinimod (0.493 mg/capsule). Therefore, according to the selected criterion for approval, the batch of capsules was determined to be suitable for distribution.
The batch of capsules manufactured in Example 13 was assessed by determining the amount of tasquinimod and the amount of compound III in a sample of the capsules, whereby the criterion for approving the batch was that the capsules of the sample, at the end of a 3-month stability testing, contain not more than 1.0% w/w of compound III relative to the amount of tasquinimod in the capsules. The stability testing consisted of keeping the capsules, in a transparent, conventional blister pack, at 40° C./75% RH. At the end of the stability testing, the capsules contained 0.12% w/w of compound III, relative to the amount of tasquinimod (determined to be 0.253 mg/capsule). Therefore, according to the selected criterion for approval, the batch of capsules was determined to be suitable for distribution.

[2] = Assessment of capsules after manufacture: amount of tasquinimod and of decomposition products; assay type: physicochemical; settings: for amount of compound III in capsules, relative to the amount of tasquinimod / amount of tasquinimod in capsules: after manufacture; for Decomposition products (% w/w), relative to the amount of tasquinimod in capsule / Tasquinimod (mg/capsule): 0 months (after manufacturing)
From the text: as §1
The obtained batch of capsules was assessed by determining the amount of tasquinimod and the amount of compound III in a sample of the capsules. The selected criterion for approving the batch was that the capsules of the sample contain not more than 1.0% w/w of compound III relative to the amount of tasquinimod. […] Therefore, according to the selected criterion for approval, the batch of capsules was determined to be suitable for distribution.
The obtained batch of capsules was assessed by determining the amount of tasquinimod and the amount of compounds I, II, III and IV in a sample of the capsules. The selected criterion for approving the batch was that the capsules of the sample contain not more than in total 5% w/w of compounds I-IV relative to the amount of tasquinimod. […] Therefore, according to the selected criterion for approval, the batch of capsules was determined to be suitable for distribution.
The obtained batch of capsules was subjected to multiple assessments, viz. a first assessment comprising determining the amount of tasquinimod and the amount of compounds I, II, III and IV in a sample of the capsules directly after manufacturing, whereby the selected criterion for approving the batch for distribution was that the capsules of the sample, in a water impermeable blister pack, contain not more than in total 5% w/w of compounds I-IV relative to the amount of tasquinimod, followed by eight further, independent assessments, by determining the amount of tasquinimod and the amount of each one of compounds I, II, III and IV in a sample of the capsules at the end of a period of stability testing (by keeping the capsules, in a water impermeable blister pack, at 25° C./60% RH) of 3, 6, 9, 12, 18, 24, 36 and 48 months, respectively, whereby each time the criterion for approving the batch was that the capsules of the sample, at the end of each period of stability testing, contain a total amount of compounds I-IV of not more than 5.0% w/w, relative to the amount of tasquinimod in the capsules.

[3] = 0.25 mg capsules of Example 10, 3 months, sealed brown glass jars
[4] = 0.25 mg capsules of Example 10, 6 months, sealed brown glass jars
[5] = 0.25 mg capsules of Example 13, 3 months, transparent blister pack
[6] = 0.25 mg capsules of Example 13, 6 months, blister pack
[7] = 0.5 mg capsules of Example 7, 3 months, sealed brown glass jars
[8] = 0.5 mg capsules of Example 7, 6 months, sealed brown glass jars
[9] = 1 mg capsules of Example 2, 1 month, open brown glass jars
[10] = 1 mg capsules of Example 2, 2 months, open brown glass jars
[11] = 1 mg capsules of Example 2, 3 months, open brown glass jars
[12] = 1 mg capsules of Example 2, 6 months, open brown glass jars
[13] = 1 mg capsules of Example 16, 3 months, transparent blister pack
[14] = 1 mg capsules of Example 16, 6 months, blister pack

amount of compound III in capsules, relative to the amount of tasquinimod [1, 3]: 0.10 % w/w
amount of compound III in capsules, relative to the amount of tasquinimod [1, 4]: 0.10 % w/w
amount of compound III in capsules, relative to the amount of tasquinimod [1, 5]: 0.12 % w/w
amount of compound III in capsules, relative to the amount of tasquinimod [1, 6]: 0.24 % w/w
amount of compound III in capsules, relative to the amount of tasquinimod [1, 7]: 0.08 % w/w
amount of compound III in capsules, relative to the amount of tasquinimod [1, 8]: 0.14 % w/w
amount of compound III in capsules, relative to the amount of tasquinimod [1, 9]: 0.13 % w/w
amount of compound III in capsules, relative to the amount of tasquinimod [1, 10]: 0.12 % w/w
amount of compound III in capsules, relative to the amount of tasquinimod [1, 11]: 0.14 % w/w
amount of compound III in capsules, relative to the amount of tasquinimod [1, 12]: 0.16 % w/w
amount of compound III in capsules, relative to the amount of tasquinimod [1, 13]: 0.13 % w/w
amount of compound III in capsules, relative to the amount of tasquinimod [1, 14]: 0.21 % w/w
amount of compound III in capsules, relative to the amount of tasquinimod ([2]; 0.25 mg capsules of Example 10): 0.07 % w/w
amount of compound III in capsules, relative to the amount of tasquinimod ([2]; 0.25 mg capsules of Example 13): 0.06 % w/w
amount of compound III in capsules, relative to the amount of tasquinimod ([2]; 0.5 mg capsules of Example 7): 0.03 % w/w
Decomposition products (% w/w), relative to the amount of tasquinimod in capsule ([2]; 0.5 mg capsules of Example 28): <0.05 % w/w
amount of compound III in capsules, relative to the amount of tasquinimod ([2]; 1 mg capsules of Example 2): 0.01 % w/w
amount of compound III in capsules, relative to the amount of tasquinimod ([2]; 1 mg capsules of Example 16): 0.02 % w/w
Decomposition products (% w/w), relative to the amount of tasquinimod in capsule ([2]; 1.0 mg capsules of Example 29): <0.05 % w/w
Structure (SMILES): COc1cccc2c1c(O)cc(=O)n2C [Compound III, 4-hydroxy-5-methoxy-1-methylquinolin-2(1H)-one]

amount of tasquinimod in capsules [1, 3]: 0.253 mg/capsule
amount of tasquinimod in capsules [1, 4]: 0.247 mg/capsule
amount of tasquinimod in capsules [1, 5]: 0.253 mg/capsule
amount of tasquinimod in capsules [1, 6]: 0.247 mg/capsule
amount of tasquinimod in capsules [1, 7]: 0.493 mg/capsule
amount of tasquinimod in capsules [1, 8]: 0.487 mg/capsule
amount of tasquinimod in capsules [1, 9]: 1.04 mg/capsule
amount of tasquinimod in capsules [1, 10]: 1.04 mg/capsule
amount of tasquinimod in capsules [1, 11]: 1.00 mg/capsule
amount of tasquinimod in capsules [1, 12]: 1.01 mg/capsule
amount of tasquinimod in capsules [1, 13]: 0.993 mg/capsule
amount of tasquinimod in capsules [1, 14]: 0.985 mg/capsule
amount of tasquinimod in capsules ([2]; 0.25 mg capsules of Example 10): 0.252 mg/capsule
amount of tasquinimod in capsules ([2]; 0.25 mg capsules of Example 13): 0.256 mg/capsule
amount of tasquinimod in capsules ([2]; 0.25 mg capsules of Example 19): 0.244 mg/capsule
amount of tasquinimod in capsules ([2]; 0.5 mg capsules of Example 7): 0.498 mg/capsule
Tasquinimod (mg/capsule) ([2]; 0.5 mg capsules of Example 28): 0.500 mg/capsule
amount of tasquinimod in capsules ([2]; 1 mg capsules of Example 2): 1.05 mg/capsule
amount of tasquinimod in capsules ([2]; 1 mg capsules of Example 16): 0.994 mg/capsule
Tasquinimod (mg/capsule) ([2]; 1.0 mg capsules of Example 29): 0.992 mg/capsule
Structure (SMILES): COc1cccc2c1c(O)c(C(=O)N(C)c1ccc(C(F)(F)F)cc1)c(=O)n2C [Tasquinimod, 4-hydroxy-5-methoxy-N, 1-dimethyl-2-oxo-N-[4-(trifluoromethyl)phenyl]-1,2-dihydroquinoline-3-carboxamide]

From patent publication US20240277693A1, “A PHARMACEUTICAL PRODUCT CONTAINING TASQUINIMOD AND A METHOD FOR ASSESSING THE PURITY OF SAID PRODUCT” (ACTIVE BIOTECH AB, priority 2021, published 2024)
